Assay results taken from PubChem BioAssay AID1902 (Broad Institute, 2009).
pEC50: −log10 of the molar value. Where “and” joins values, the source holds several entries; their conditions need not be identical. Identical values can stand only once. Calls of active or inactive are those of the source.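 The calls were made as follows: active = EC50 no more than a set limit of log units above the highest dose; inactive = the rest.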

These molecules were tested against S. pyogenes SKKanGAS, kanamycin survival, BacTiterGlo, 6 h (assay: SKKanGAS survival reduction under kanamycin, dose response, streptokinase promoter inhibitor project, SKKanGAS strain, luminescence, dose confirmation (AID 1902);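 also: lower survival reflects blocked streptokinase promoter driving kanamycin resistance gene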).
`COc1cccc(CNCC(O)(c2ccc(Cl)cc2)c2ccc(Cl)cc2)c1` was tested, and the pEC50 was 5.43. With `c1ccc(-c2nc(C3CCCCC3)c3sccc3n2)cc1` the pEC50 was 5.48. In the case of `CCOC(=O)c1cnc(-n2nc(C)cc2C)nc1NCc1ccccc1`, the pEC50 was 5.38. Molecule `O=C1CN(/N=C/c2ccc([N+](=O)[O-])o2)C(=O)N1` has a pEC50 of 5.23. In the case of `CCN(CC)C(=O)c1cc(-c2ccc(Br)cc2)on1`, the EC50 was > 15 µM (inactive). `N#C/C(=C(/O)COc1ccccc1)c1nc2ccccc2s1` was tested, and the pEC50 was 4.84. `COc1ccc(-c2cc3nc(-c4ccccc4)cc(N4CCCC(O)C4)n3n2)cc1` (configuration not stated) showed a pEC50 of 5.37. `C/C(=N\NC(=O)c1ccc(Cl)c(Cl)c1)c1ccccn1` showed a pEC50 of 7.20. `CCCOc1ccc(C2C(C(=O)c3cc4ccccc4o3)=C(O)C(=O)N2c2cc(C)on2)cc1OC` (configuration not stated) gave a pEC50 of 5.70. In the case of `COc1cnc(-c2ccccn2)nc1Oc1c(C)cccc1C`, the pEC50 was 6.69. Molecule `CCCCC(=O)NNC(=S)NC(=O)C(c1ccccc1)c1ccccc1` has a pEC50 of 6.73. `O=C(CNc1cccc2ccccc12)N/N=C/c1ccc[nH]1` was tested, and the EC50 was > 15 µM (inactive). With `NCCS(=O)(=O)NC1CCCCC1` the EC50 was > 15 µM (inactive). Work on `Cc1cc(C)c(OCC(=O)Nc2ccccc2N2CCCCC2)c(C)c1` yielded a pEC50 of 5.36. Molecule `CCCCCCCCOC(=O)C1=C(C)Nc2nnnn2C1c1cccs1` (configuration not stated) has a pEC50 of 5.46. In the case of `CCCN(CCC)S(=O)(=O)c1ccc(C(=O)Nc2nnc(COC)o2)cc1`, the pEC50 was 5.30. Molecule `Brc1ccc2[nH]c3c(N4CCc5ccccc5C4)ncnc3c2c1` has a pEC50 of 5.21. With `CN1/C(=C\C(=O)Nc2ccc(Cl)cc2)C(C)(C)c2ccccc21` the pEC50 was 5.06. With `Cn1c(Sc2ccccc2Cl)c(C=O)c2ccccc21` the pEC50 was 5.23. With `O=C(O)C(c1ccccc1)N1C(=O)/C(=C\c2ccc(-c3cccc(Cl)c3)o2)SC1=S` (configuration not stated) the pEC50 was 5.71. Work on `O=C(Cc1csc(Nc2nc(=S)[nH]c3ccccc23)n1)NCCCN1CCN(c2cccc(Cl)c2)CC1` yielded a pEC50 of 5.21. `Cc1nc(N)sc1-c1csc(N(C)c2ccc(O)cc2)n1` gave a pEC50 of 5.45. With `O=[N+]([O-])c1cc(C(F)(F)F)ccc1NCCNC(=S)Nc1ccc(Cl)cc1` the pEC50 was 5.32. `COc1cc([N+](=O)[O-])cc(/C=N\NC(=O)C2COc3ccccc3O2)c1O` (configuration not stated) was tested, and the pEC50 was 5.44. Molecule `Cc1ccc(-c2cc(-c3ccccc3)nc(N(C)N)n2)cc1` has a pEC50 of 5.22. With `COc1ccc(/C=C2/C(=O)N(c3nc4ccccc4s3)N=C2CSc2ccc(Cl)cc2)cc1` the pEC50 was 6.29. For `Cc1ccc2cc(CN(Cc3cccs3)C(=O)c3ccco3)c3nnnn3c2c1C`, the pEC50 was 5.33. `FC(F)(F)c1cc(CCN2C(=S)NC[C@@H]2CC2CCCCC2)cc(C(F)(F)F)c1` showed a pEC50 of 5.43. `Nc1nc(N)c2cc(Sc3ccc4ccccc4c3)ccc2n1` gave a pEC50 of 6.94. For `Cc1cc(C)c2nc(NNC(=O)c3ccc(S(=O)(=O)N4CC(C)CC(C)C4)cc3)sc2c1` (configuration not stated), the pEC50 was 6.09. For `Cc1cc(N/N=C/c2cccc(Cl)c2)nc(-n2nc(C)cc2C)n1`, the pEC50 was 6.02. For `Cc1ccc(C(=O)NNC(=S)NC(=O)c2ccco2)cc1`, the pEC50 was 6.04. `c1ccc(CSC2=NNC(c3ccccn3)S2)cc1` (configuration not stated) showed a pEC50 of 5.95. Molecule `Cc1cc(N/N=C/c2c(O)ccc3ccccc23)nc(-c2ccccc2O)n1` has a pEC50 of 6.59. For `CCc1oc2ccccc2c1C(=O)c1cc(Br)c(O)c(Br)c1`, the pEC50 was 5.18. With `COCC1CCCCN1C(=O)c1ccc2oc(CCCc3ccccc3)nc2c1` (configuration not stated) the EC50 was > 15 µM (inactive). `CCOC(=O)Cc1cc(=O)n2[nH]cc(-c3cccc(Br)c3)c2n1` gave a pEC50 of 5.45. Work on `O=C(COc1c(Cl)cccc1Cl)Nc1ccccc1N1CCCC1` yielded a pEC50 of 5.20. In the case of `CNC(=O)C(=O)NCC1OCCN1S(=O)(=O)c1ccc(OC)c(OC)c1` (configuration not stated), the EC50 was > 15 µM (inactive). With `COc1cccc(/C=C/c2ccc3cccc(O)c3n2)c1OC` the pEC50 was 6.05. Work on `O=C(Cn1sc2ccccc2c1=O)NC12CC3CC(CC(C3)C1)C2` yielded a pEC50 of 5.95. `CC1(C)Cc2c(cnn2-c2ccccc2)C(NC(=O)CCCN2CCCC2=O)C1` (configuration not stated) was tested, and the EC50 was > 15 µM (inactive). `CC(C)c1ccc2nc3sc(C(=O)N4CCc5ccccc5C4)c(N)c3cc2c1` gave a pEC50 of 4.84. `O=C(CP(=O)(c1ccccc1)c1ccccc1)N/N=C/c1cc(Br)cc(Br)c1O` was tested, and the pEC50 was 6.09. `CCc1ccc2c(c1)C1(NN=C(c3ccccc3)S1)C(=O)N2` (configuration not stated) gave a pEC50 of 6.61. Molecule `N#C/C(=C(/O)c1ccc2c(c1)OCO2)c1nc2cc(C(F)(F)F)ccc2s1` has a pEC50 of 5.61. With `Cc1nnc(SCC2=C(C(=O)O)N3C(=O)C(NC(=O)Cn4ncc(Cl)c4C)C3SC2)s1` (configuration not stated) the pEC50 was over 7.22. For `O=c1c2cc(Cl)ccc2nc(-c2ccc(Cl)c(Cl)c2)n1O`, the pEC50 was 6.63. `CCCNC1=C(C)C(=O)C2=C(C1=O)C(COC(N)=O)[C@]1(OC)C3NC3CN21` (some centres not stated) gave a pEC50 of over 7.22. In the case of `O=S(=O)(NCCSCc1c(Cl)cccc1Cl)c1ccc2c(c1)OCCO2`, the pEC50 was 5.13. Work on `CC(C)CCC(CCNCc1ccccn1)c1ccc(Cl)cc1` (configuration not stated) yielded a pEC50 of 4.88. With `Cc1ccc(Cl)cc1NC1=C/C(=N\S(=O)(=O)c2cccs2)c2ccccc2C1=O` the pEC50 was 6.04. For `Cc1ccc(C)c(/C=N/NC(=S)NCCc2ccccc2)c1`, the pEC50 was 5.39. `CCOC(=O)/C(=N\Nc1ccc(Cl)cc1)c1csc(Nc2ccccc2)n1` gave a pEC50 of 5.75. Molecule `Cc1ccc(C)c(/C=C/C(=O)c2ccccc(=O)c2O)c1` has a pEC50 of 5.72. `C#CCOCCOCCOCCNc1nc(N2CCN(C(=O)CCCCCCCCCCNC(=O)[C@H](CCCCN)n3cc(C[C@@H](C)CC)nn3)CC2)nc(N2CCN(C(=O)CCCCCCCCCCNC(=O)[C@H](CCCCN)n3cc(C[C@@H](C)CC)nn3)CC2)n1` was tested, and the pEC50 was 5.29. In the case of `Cc1ccc(C(=O)N/N=C/c2cc(Br)ccc2O)cn1`, the pEC50 was 5.61. `O=C(O)c1ccc(N2C(=O)CC(SC(=NCc3ccc4c(c3)OCO4)Nc3ccc(F)cc3)C2=O)cc1` (configuration not stated) was tested, and the pEC50 was 5.08. `Cc1ccc(-c2csc(-c3c[nH]c4ccccc34)n2)c(C)c1` gave a pEC50 of 5.22. `O=c1c2ccccc2[se]n1-c1ccccc1` gave a pEC50 of 5.82. Work on `O=[N+]([O-])c1cccnc1N1CCC(c2cc(-c3ccc(Cl)cc3Cl)n[nH]2)CC1` yielded a pEC50 of 5.91. With `COc1ccc(/C=C/C(=O)NC(=S)NNC(=O)c2ccco2)cc1OC` the pEC50 was 5.39. Work on `O=C(Nc1cccc(C(F)(F)F)c1)Oc1ccc(Cl)c2cccnc12` yielded a pEC50 of 5.71. `C#CCN1C(=O)S/C(=C\c2ccc(-c3ccc(Cl)c(C(=O)O)c3)o2)C1=O` was tested, and the pEC50 was 5.55. `C/C(=N\NC(=O)c1ccc(Cl)c(Cl)c1)c1ccc(Br)s1` gave a pEC50 of 6.25. In the case of `COc1ccc(CN2C(=O)c3ccccc3C(/C=N/OCc3ccc(Cl)cc3)C2=O)cc1` (configuration not stated), the pEC50 was 5.96. `CCOC(=O)N1CCN(C(=O)c2ccc3c(c2)N(C)C(=O)/C(=C\c2ccc(OCC)c(OC)c2)S3)CC1` gave a pEC50 of 6.23. Work on `Cc1ccc(C)c(N2CCN(C(=O)CCCCCn3c(=S)[nH]c4ccc(N5CCOCC5)cc4c3=O)CC2)c1` yielded a pEC50 of 5.10. `O=C(Nc1ccc(F)cc1)N1CCCCCC1` was tested, and the EC50 was > 15 µM (inactive). In the case of `NC1CCN(c2nc3c(cc2F)c(=O)c(C(=O)O)cn3-c2ccc(F)cc2F)C1` (configuration not stated), the pEC50 was 6.53. `COc1ccc(C2CC(c3cccs3)=NN2C(=O)c2ccc(Br)o2)cc1` (configuration not stated) showed a pEC50 of 5.25. `Cc1ccc(-c2cnc(N)n2C)cc1C` was tested, and the pEC50 was 5.38. In the case of `c1ccc2c(Nc3nc4c(s3)CCCC4)cccc2c1`, the pEC50 was 5.93. `Cc1ccc(C(C)C)c(OCc2ccc(C(=O)N/N=C/c3ccc(O)cc3O)cc2)c1` showed a pEC50 of 5.90. `Cc1c(Cl)cnn1CC(=O)NC1C(=O)N2C(C(=O)O)=C(CSc3nnnn3C)CSC12` (configuration not stated) showed a pEC50 of over 7.22. `Nc1nc(NCc2ccco2)nc(N2CCCCCC2)c1[N+](=O)[O-]` was tested, and the pEC50 was 5.39. In the case of `CCc1ccc(/C=C/c2c([N+](=O)[O-])c(=O)n(C)c(=O)n2C)cc1`, the pEC50 was 4.96. `CN1C(=O)/C(=C/c2cccn2-c2ccc3ccccc3c2)C(=O)NC1=S` gave a pEC50 of 5.24. `c1ccc(-c2csc3ncnc(N4CCc5ccccc5C4)c23)cc1` was tested, and the pEC50 was 5.15. `Cc1cc(C(=O)Nc2nc(-c3ccccn3)cs2)ccc1[N+](=O)[O-]` showed a pEC50 of 5.77. Work on `COc1ccc(NC(=O)C(OC(=O)c2cnc(C)cn2)c2ccccc2)cc1Cl` (configuration not stated) yielded a pEC50 of 4.93. `O=C(C1CCCCC1)N1CCC(c2nc3c(nnn3Cc3c(F)cccc3Cl)c(=O)[nH]2)CC1` gave a pEC50 of 5.42. For `O=C(c1ccc2c3n(nc2c1)-c1ccccc1CO3)N1CCCCC1`, the pEC50 was 5.03. Work on `Cc1ccc(C(=O)Nc2nc(-c3ccccc3)c(-c3ccccc3)o2)cc1` yielded a pEC50 of 6.27. `Cc1ccc(CN2CC(C(=O)Nc3nnc(SCc4c(Cl)cccc4Cl)s3)CC2=O)cc1` (configuration not stated) showed a pEC50 of 5.31. `COC(=O)[C@H]1[C@H](CCc2ccccc2)NC(=O)N(Cc2ccccc2)[C@@H]1C` was tested, and the EC50 was > 15 µM (inactive). For `COCCCn1c(=O)/c(=C\c2ccccc2OC(C)C)s/c1=C(/C#N)C(=O)Nc1ccc(C(=O)O)cc1`, the pEC50 was 5.69. Work on `O=C(Nc1nnc(-c2ccccn2)o1)c1cccc(Cl)c1` yielded a pEC50 of 5.78. In the case of `Cc1cccc(OCCn2c(NC(=O)c3ccco3)nc3ccccc32)c1`, the pEC50 was 5.57. `CN(C)c1ccnc2c[cH-]cc12.[Fe].c1ccc(-[c-]2[c-](-c3ccccc3)[c-](-c3ccccc3)[c-](-c3ccccc3)[c-]2-c2ccccc2)cc1` (configuration not stated) was tested, and the pEC50 was 5.71 and 6.25. Work on `Oc1c(Br)cc(Br)cc1/C=N/c1nc2c(s1)CCCC2` yielded a pEC50 of 5.23. `COC(=O)C(C)NC(=S)N1CCN(c2c(F)cc3c(=O)c(C(=O)O)cn(C4CC4)c3c2OC)CC1C` (configuration not stated) showed a pEC50 of 5.48. With `Cc1onc(-c2ccccc2)c1C(=O)NNC(=S)NC(=O)c1ccc(Cl)cc1Cl` the pEC50 was 6.21. With `COC(=O)CSc1nnc(-c2cnccn2)n1C` the EC50 was > 15 µM (inactive). With `CCN(CC)C(=S)Sc1c(-c2ccccc2)c2cc(Cl)ccc2[nH]c1=O` the pEC50 was 6.11. Molecule `Oc1ccc(Cl)cc1C1=NNC(c2ccc(Cl)cc2)C1` (configuration not stated) has a pEC50 of 5.96. Molecule `COc1cc(OC)c([C@H]2C=C(C)[C@H]3C[C@@H]2C3(C)C)c(OC)c1` has a pEC50 of 5.59. `Cc1c(C(=O)Nc2ccc3c(c2)OCCO3)sc2nc(-c3ccccc3)cn12` was tested, and the pEC50 was 5.60. With `Fc1ccc(N2CCN(Cc3cn[nH]c3-c3ccccc3)CC2)cc1` the EC50 was > 15 µM (inactive). Work on `Cc1cccc(NC(=O)c2nc[nH]c2C(=O)N[C@@H](CCCCNC(=O)OC(C)(C)C)C(=O)OC(C)(C)C)c1` yielded a pEC50 of 5.55. With `CCOC(=O)c1c(C)[nH]c(C(=O)N/N=C/c2cc([N+](=O)[O-])ccc2O)c1C` the pEC50 was 5.36. Molecule `CC(C)=CCOc1ccc([C@@H]2COc3c(ccc4c3C=CC(C)(C)O4)C2)c(O)c1` has a pEC50 of 5.74. Work on `O=c1c2cc(Br)ccc2nc(-c2ccc(Cl)cc2)n1O` yielded a pEC50 of 5.97. Molecule `Cc1cccc(CS(=O)(=O)c2nnc([C@H](Cc3ccccc3)NC(=O)OC(C)(C)C)o2)c1` has a pEC50 of 5.41. Molecule `FC(F)(F)c1ccccc1/C=N/n1c(C2CCCCC2)n[nH]c1=S` has a pEC50 of 5.32. `O=[N+]([O-])c1ccc(O)c(/C=N/Nc2nc3ccccc3[nH]2)c1` showed a pEC50 of 6.23. `Clc1ccc(-c2n[nH]c3c2CCC3)cc1Cl` gave a pEC50 of 4.90.
